Assay results published in ChEMBL document CHEMBL3045835, “Comparative study of conventional and microwave-assisted synthesis of some Schiff bases and their potential as antimicrobial agents” (2012).

How the values were obtained:
Assay type in all cases: functional
Pseudomonas fluorescens [1] = test: Antibacterial activity against Pseudomonas fluorescens MTCC 2421 after 24 hr by broth dilution method; conditions: MTCC 2421, 24 h
Pseudomonas aeruginosa [2] = test: Antibacterial activity against Pseudomonas aeruginosa MTCC 424 at 500 ug/ml after 18 hr by cup-plate method; conditions: MTCC 424, 18 h, read-out: DIZ
Pseudomonas aeruginosa [3] = test: Antibacterial activity against Pseudomonas aeruginosa MTCC 424 at 100 ug/ml after 18 hr by cup-plate method; conditions: MTCC 424, 18 h, read-out: DIZ
Staphylococcus aureus [4] = test: Antibacterial activity against Staphylococcus aureus MTCC 1430 at 1000 ug/ml after 18 hr by cup-plate method; conditions: MTCC 1430, 18 h, read-out: DIZ
Escherichia coli [5] = test: Antibacterial activity against Escherichia coli MTCC 1573 at 200 ug/ml after 18 hr by cup-plate method; conditions: MTCC 1573, 18 h, read-out: DIZ
Bacillus subtilis [6] = test: Antibacterial activity against Bacillus subtilis MTCC 441 at 100 ug/ml after 18 hr by cup plate method; conditions: MTCC 441, 18 h, read-out: DIZ
Escherichia coli [7] = test: Antibacterial activity against Escherichia coli MTCC 1573 after 24 hr by broth dilution method; conditions: MTCC 1573, 24 h
Pseudomonas fluorescens [8] = test: Antibacterial activity against Pseudomonas fluorescens MTCC 2421 at 200 ug/ml after 18 hr by cup-plate method; conditions: MTCC 2421, 18 h, read-out: DIZ
Micrococcus luteus [9] = test: Antibacterial activity against Micrococcus luteus MTCC 1538 at 100 ug/ml after 18 hr by cup-plate method; conditions: MTCC 1538, 18 h, read-out: DIZ
Pseudomonas fluorescens [10] = test: Antibacterial activity against Pseudomonas fluorescens MTCC 2421 at 100 ug/ml after 18 hr by cup-plate method; conditions: MTCC 2421, 18 h, read-out: DIZ
Micrococcus luteus [11] = test: Antibacterial activity against Micrococcus luteus MTCC 1538 at 500 ug/ml after 18 hr by cup-plate method; conditions: MTCC 1538, 18 h, read-out: DIZ
Penicillium chrysogenum [12] = test: Antifungal activity against Penicillium chrysogenum MTCC 161 after 24 hr by broth dilution method; conditions: MTCC 161, 24 h
Bacillus subtilis [13] = test: Antibacterial activity against Bacillus subtilis MTCC 441 at 1000 ug/ml after 18 hr by cup plate method; conditions: MTCC 441, 18 h, read-out: DIZ
Pseudomonas aeruginosa [14] = test: Antibacterial activity against Pseudomonas aeruginosa MTCC 424 at 1500 ug/ml after 18 hr by cup-plate method; conditions: MTCC 424, 18 h, read-out: DIZ
Staphylococcus aureus [15] = test: Antibacterial activity against Staphylococcus aureus MTCC 1430 at 1500 ug/ml after 18 hr by cup-plate method; conditions: MTCC 1430, 18 h, read-out: DIZ
Micrococcus luteus [16] = test: Antibacterial activity against Micrococcus luteus MTCC 1538 after 24 hr by broth dilution method; conditions: MTCC 1538, 24 h
Penicillium chrysogenum [17] = test: Antifungal activity against Penicillium chrysogenum MTCC 161 at 1000 ug/ml after 18 hr by cup-plate method; conditions: MTCC 161, 18 h, read-out: DIZ
Pseudomonas fluorescens [18] = test: Antibacterial activity against Pseudomonas fluorescens MTCC 2421 at 1500 ug/ml after 18 hr by cup-plate method; conditions: MTCC 2421, 18 h, read-out: DIZ
Bacillus subtilis [19] = test: Antibacterial activity against Bacillus subtilis MTCC 441 at 200 ug/ml after 18 hr by cup plate method; conditions: MTCC 441, 18 h, read-out: DIZ
Penicillium chrysogenum [20] = test: Antifungal activity against Penicillium chrysogenum MTCC 161 at 100 ug/ml after 18 hr by cup-plate method; conditions: MTCC 161, 18 h, read-out: DIZ
Pseudomonas aeruginosa [21] = test: Antibacterial activity against Pseudomonas aeruginosa MTCC 424 at 200 ug/ml after 18 hr by cup-plate method; conditions: MTCC 424, 18 h, read-out: DIZ
Bacillus pumilus [22] = test: Antibacterial activity against Bacillus pumilus MTCC 1456 at 200 ug/ml after 18 hr by cup-plate method; conditions: MTCC 1456, 18 h, read-out: DIZ
Bacillus pumilus [23] = test: Antibacterial activity against Bacillus pumilus MTCC 1456 at 1000 ug/ml after 18 hr by cup-plate method; conditions: MTCC 1456, 18 h, read-out: DIZ
Staphylococcus aureus [24] = test: Antibacterial activity against Staphylococcus aureus MTCC 1430 at 200 ug/ml after 18 hr by cup-plate method; conditions: MTCC 1430, 18 h, read-out: DIZ
Escherichia coli [25] = test: Antibacterial activity against Escherichia coli MTCC 1573 at 500 ug/ml after 18 hr by cup-plate method; conditions: MTCC 1573, 18 h, read-out: DIZ
Penicillium chrysogenum [26] = test: Antifungal activity against Penicillium chrysogenum MTCC 161 at 1500 ug/ml after 18 hr by cup-plate method; conditions: MTCC 161, 18 h, read-out: DIZ
Escherichia coli [27] = test: Antibacterial activity against Escherichia coli MTCC 1573 at 1000 ug/ml after 18 hr by cup-plate method; conditions: MTCC 1573, 18 h, read-out: DIZ
Escherichia coli [28] = test: Antibacterial activity against Escherichia coli MTCC 1573 at 1500 ug/ml after 18 hr by cup-plate method; conditions: MTCC 1573, 18 h, read-out: DIZ
Bacillus subtilis [29] = test: Antibacterial activity against Bacillus subtilis MTCC 441 at 1500 ug/ml after 18 hr by cup plate method; conditions: MTCC 441, 18 h, read-out: DIZ
Staphylococcus aureus [30] = test: Antibacterial activity against Staphylococcus aureus MTCC 1430 at 500 ug/ml after 18 hr by cup-plate method; conditions: MTCC 1430, 18 h, read-out: DIZ
Aspergillus niger [31] = test: Antifungal activity against Aspergillus niger MTCC 2546 at 1500 ug/ml after 18 hr by cup-plate method; conditions: MTCC 2546, 18 h, read-out: DIZ
Pseudomonas aeruginosa [32] = test: Antibacterial activity against Pseudomonas aeruginosa MTCC 424 after 24 hr by broth dilution method; conditions: MTCC 424, 24 h
Pseudomonas fluorescens [33] = test: Antibacterial activity against Pseudomonas fluorescens MTCC 2421 at 1000 ug/ml after 18 hr by cup-plate method; conditions: MTCC 2421, 18 h, read-out: DIZ
Pseudomonas fluorescens [34] = test: Antibacterial activity against Pseudomonas fluorescens MTCC 2421 at 500 ug/ml after 18 hr by cup-plate method; conditions: MTCC 2421, 18 h, read-out: DIZ
Bacillus pumilus [35] = test: Antibacterial activity against Bacillus pumilus MTCC 1456 at 100 ug/ml after 18 hr by cup-plate method; conditions: MTCC 1456, 18 h, read-out: DIZ
Bacillus subtilis [36] = test: Antibacterial activity against Bacillus subtilis MTCC 441 after 24 hr by broth dilution method; conditions: MTCC 441, 24 h
Bacillus pumilus [37] = test: Antibacterial activity against Bacillus pumilus MTCC 1456 at 1500 ug/ml after 18 hr by cup-plate method; conditions: MTCC 1456, 18 h, read-out: DIZ
Aspergillus niger [38] = test: Antifungal activity against Aspergillus niger MTCC 2546 at 500 ug/ml after 18 hr by cup-plate method; conditions: MTCC 2546, 18 h, read-out: DIZ
Micrococcus luteus [39] = test: Antibacterial activity against Micrococcus luteus MTCC 1538 at 200 ug/ml after 18 hr by cup-plate method; conditions: MTCC 1538, 18 h, read-out: DIZ
Penicillium chrysogenum [40] = test: Antifungal activity against Penicillium chrysogenum MTCC 161 at 500 ug/ml after 18 hr by cup-plate method; conditions: MTCC 161, 18 h, read-out: DIZ
Aspergillus niger [41] = test: Antifungal activity against Aspergillus niger MTCC 2546 after 24 hr by broth dilution method; conditions: MTCC 2546, 24 h
Aspergillus niger [42] = test: Antifungal activity against Aspergillus niger MTCC 2546 at 1000 ug/ml after 18 hr by cup-plate method; conditions: MTCC 2546, 18 h, read-out: DIZ
Aspergillus niger [43] = test: Antifungal activity against Aspergillus niger MTCC 2546 at 100 ug/ml after 18 hr by cup-plate method; conditions: MTCC 2546, 18 h, read-out: DIZ
Micrococcus luteus [44] = test: Antibacterial activity against Micrococcus luteus MTCC 1538 at 1000 ug/ml after 18 hr by cup-plate method; conditions: MTCC 1538, 18 h, read-out: DIZ
Bacillus pumilus [45] = test: Antibacterial activity against Bacillus pumilus MTCC 1456 at 500 ug/ml after 18 hr by cup-plate method; conditions: MTCC 1456, 18 h, read-out: DIZ
Aspergillus niger [46] = test: Antifungal activity against Aspergillus niger MTCC 2546 at 200 ug/ml after 18 hr by cup-plate method; conditions: MTCC 2546, 18 h, read-out: DIZ
Escherichia coli [47] = test: Antibacterial activity against Escherichia coli MTCC 1573 at 100 ug/ml after 18 hr by cup-plate method; conditions: MTCC 1573, 18 h, read-out: DIZ
Bacillus subtilis [48] = test: Antibacterial activity against Bacillus subtilis MTCC 441 at 500 ug/ml after 18 hr by cup plate method; conditions: MTCC 441, 18 h, read-out: DIZ
Micrococcus luteus [49] = test: Antibacterial activity against Micrococcus luteus MTCC 1538 at 1500 ug/ml after 18 hr by cup-plate method; conditions: MTCC 1538, 18 h, read-out: DIZ
Bacillus pumilus [50] = test: Antibacterial activity against Bacillus pumilus MTCC 1456 after 24 hr by broth dilution method; conditions: MTCC 1456, 24 h
Pseudomonas aeruginosa [51] = test: Antibacterial activity against Pseudomonas aeruginosa MTCC 424 at 1000 ug/ml after 18 hr by cup-plate method; conditions: MTCC 424, 18 h, read-out: DIZ
Staphylococcus aureus [52] = test: Antibacterial activity against Staphylococcus aureus MTCC 1430 at 100 ug/ml after 18 hr by cup-plate method; conditions: MTCC 1430, 18 h, read-out: DIZ
Penicillium chrysogenum [53] = test: Antifungal activity against Penicillium chrysogenum MTCC 161 at 200 ug/ml after 18 hr by cup-plate method; conditions: MTCC 161, 18 h, read-out: DIZ
Staphylococcus aureus [54] = test: Antibacterial activity against Staphylococcus aureus MTCC 1430 after 24 hr by broth dilution method; conditions: MTCC 1430, 24 h

O=c1c(/C=N/c2ccc(Cl)cc2)coc2ccccc12
400 µg/mL: MIC (Escherichia coli [7])
23 mm: zone of inhibition at 1000 µg/mL (Micrococcus luteus [44])
200 µg/mL: MIC (Penicillium chrysogenum [12]) | MIC (Micrococcus luteus [16]) | MIC (Pseudomonas aeruginosa [32]) | MIC (Aspergillus niger [41]) | MIC (Bacillus pumilus [50])
13 mm: zone of inhibition at 100 µg/mL (Bacillus subtilis [6]) | zone of inhibition at 100 µg/mL (Escherichia coli [47])
14 mm: zone of inhibition at 200 µg/mL (Staphylococcus aureus [24]) | zone of inhibition at 500 µg/mL (Pseudomonas fluorescens [34])
15 mm: zone of inhibition at 200 µg/mL (Bacillus subtilis [19]) | zone of inhibition at 100 µg/mL (Penicillium chrysogenum [20]) | zone of inhibition at 200 µg/mL (Bacillus pumilus [22])
21 mm: zone of inhibition at 500 µg/mL (Micrococcus luteus [11]) | zone of inhibition at 1500 µg/mL (Pseudomonas aeruginosa [14]) | zone of inhibition at 1500 µg/mL (Staphylococcus aureus [15]) | zone of inhibition at 1500 µg/mL (Penicillium chrysogenum [26]) | zone of inhibition at 1500 µg/mL (Bacillus subtilis [29]) | zone of inhibition at 1500 µg/mL (Aspergillus niger [31])
16 mm: zone of inhibition at 100 µg/mL (Pseudomonas aeruginosa [3]) | zone of inhibition at 200 µg/mL (Escherichia coli [5]) | zone of inhibition at 100 µg/mL (Micrococcus luteus [9]) | zone of inhibition at 500 µg/mL (Staphylococcus aureus [30]) | zone of inhibition at 1000 µg/mL (Pseudomonas fluorescens [33]) | zone of inhibition at 100 µg/mL (Aspergillus niger [43])
18 mm: zone of inhibition at 1000 µg/mL (Staphylococcus aureus [4]) | zone of inhibition at 1500 µg/mL (Pseudomonas fluorescens [18]) | zone of inhibition at 200 µg/mL (Pseudomonas aeruginosa [21]) | zone of inhibition at 1000 µg/mL (Bacillus pumilus [23]) | zone of inhibition at 200 µg/mL (Aspergillus niger [46])
24 mm: zone of inhibition at 1500 µg/mL (Micrococcus luteus [49])
12 mm: zone of inhibition at 200 µg/mL (Pseudomonas fluorescens [8]) | zone of inhibition at 100 µg/mL (Bacillus pumilus [35]) | zone of inhibition at 100 µg/mL (Staphylococcus aureus [52])
11 mm: zone of inhibition at 100 µg/mL (Pseudomonas fluorescens [10])
300 µg/mL: MIC (Pseudomonas fluorescens [1]) | MIC (Bacillus subtilis [36]) | MIC (Staphylococcus aureus [54])
19 mm: zone of inhibition at 500 µg/mL (Pseudomonas aeruginosa [2]) | zone of inhibition at 1000 µg/mL (Bacillus subtilis [13]) | zone of inhibition at 1000 µg/mL (Escherichia coli [27]) | zone of inhibition at 1500 µg/mL (Bacillus pumilus [37]) | zone of inhibition at 500 µg/mL (Aspergillus niger [38]) | zone of inhibition at 200 µg/mL (Micrococcus luteus [39]) | zone of inhibition at 500 µg/mL (Penicillium chrysogenum [40])
17 mm: zone of inhibition at 500 µg/mL (Escherichia coli [25]) | zone of inhibition at 500 µg/mL (Bacillus pumilus [45]) | zone of inhibition at 500 µg/mL (Bacillus subtilis [48]) | zone of inhibition at 200 µg/mL (Penicillium chrysogenum [53])
20 mm: zone of inhibition at 1000 µg/mL (Penicillium chrysogenum [17]) | zone of inhibition at 1500 µg/mL (Escherichia coli [28]) | zone of inhibition at 1000 µg/mL (Aspergillus niger [42]) | zone of inhibition at 1000 µg/mL (Pseudomonas aeruginosa [51])
